The subject of assay [1] is Pyricularia oryzae. The assay is classed as cell-based. Conditions: single active, growth at 405 nm 7 days after inoculation, 18° C.
Assay [2] concerns Alternaria solani. As to the kind of experiment: Activity against Alternaria solani in the microtiterplate test. The class given is cell-based. Conditions: single active, growth at 405 nm 7 days after inoculation, 18° C.

This passage reports Observed efficacy results from patent US20120316062A1 (priority 2009, published 2012).

Where two headings read alike, the source gives them in different places.

Take `O=C(NC(=O)c1c(F)cccc1F)Nc1ccc(Oc2ccc(C(F)(F)F)cc2Cl)cc1F` [flufenoxuron]: the values for the Observed efficacy in assay [1] (1 ppm) and in assay [2] (16 ppm) were 6 and 0, respectively.

Regarding `COC(=O)N(OC)c1ccccc1COc1ccn(-c2ccc(Cl)cc2)n1` [pyraclostrobin], the Observed efficacy was 23 in assay [1] (0.004 ppm) and 56 in assay [2] (0.063 ppm).
